Laboratory results taken from patent US8574831B2, “Mutational profiles in HIV-1 reverse transcriptase correlated with phenotypic drug resistance” (Virco N.V., priority 2000, dated 2013).

System: HIV with mutations in the HIV protease sequence
Assay: Phenotypic fold resistance to protease inhibitors, protease mutations 84A/84L/84C/54M/54L/54V in a background (Examples 8-13)
Assay type: cell-based, HIV-1
Procedure, shortened: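 Fold-resistance equals chimeric-virus IC50 divided by IC50 of a parallel wild-type reference HIV-1 strain. Chimeras come from PCR-amplified PR/RT genes recombined into PR/RT-deleted HXB2 proviral DNA inside CD4+ T cells, then cultured with graded drug concentrations.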

SMILES: CC(C)CN(C[C@@H](O)[C@H](Cc1ccccc1)NC(=O)O[C@H]1CCOC1)S(=O)(=O)c1ccc(N)cc1 [Amprenavir, amprenavir]
- mean fold increase in resistance (Table 9 #1, protease genotype WT): 1 fold
- mean fold increase in resistance (Table 9 #2, protease genotype 10I): 1.1 fold
- mean fold increase in resistance (Table 9 #3, protease genotype 46I): 1.2 fold
- mean fold increase in resistance (Table 9 #4, protease genotype 46I + 84V): 2.3 fold
- mean fold increase in resistance (Table 9 #5, protease genotype 46I + 84A): 7.7 fold
- mean fold increase in resistance (Table 9 #6, protease genotype 10I + 46I): 5.6 fold
- mean fold increase in resistance (Table 9 #7, protease genotype 10I + 46I + 84V): 4.5 fold
- mean fold increase in resistance (Table 9 #8, protease genotype 10I + 46I + 84A): 17 fold
- mean fold increase in resistance (Table 9 #9, protease genotype 10L/I + 46I + 84A): 24.9 fold
- mean fold increase in resistance (Table 9 #10, protease genotype 10I + 46I + 84A): 11 fold
- mean fold increase in resistance (Table 9 #11, protease genotype 46I + 71V): 2.2 fold
- mean fold increase in resistance (Table 9 #12, protease genotype 46I + 71V + 84V/I): 2.2 fold
- mean fold increase in resistance (Table 9 #13, protease genotype 46I + 71V + 84A): 23 fold
- mean fold increase in resistance (Table 9 #14, protease genotype 10F + 46I + 71V): 4.2 fold
- mean fold increase in resistance (Table 9 #15, protease genotype 10I + 46I + 71V + 84V): 17.8 fold
- mean fold increase in resistance (Table 9 #16, protease genotype 10I + 46I + 71V + 84A): 15.2 fold
- mean fold increase in resistance (Table 9 #17, protease genotype 10V + 46I + 71T + 84A): 39.8 fold
- mean fold increase in resistance (Table 9 #18, protease genotype 10I + 46I + 71V + 77I): 0.9 fold
- mean fold increase in resistance (Table 9 #19, protease genotype 10I + 46I + 71V + 77I + 84V): 1.4 fold
- mean fold increase in resistance (Table 9 #20, protease genotype 10I + 46I + 71V + 77I + 84A): 15 fold
- mean fold increase in resistance (Table 9 #21, protease genotype 10I + 33L/I + 46I + 71V + 77V/I + 84A): 10.9 fold
- mean fold increase in resistance (Table 10 #1, protease genotype 10I + 36I + 71V): 1.0 fold
- mean fold increase in resistance (Table 10 #2, protease genotype 10I + 36I + 71I + 84V): 1.1 fold
- mean fold increase in resistance (Table 10 #3, protease genotype 10I + 36I + 71I + 84L): 0.3 fold
- mean fold increase in resistance (Table 11 #1, protease genotype WT): 1.0 fold
- mean fold increase in resistance (Table 11 #2, protease genotype 84V): 2.0 fold
- mean fold increase in resistance (Table 11 #3, protease genotype 84C): 5.9 fold
- mean fold increase in resistance (Table 11 #4, protease genotype 10I): 1.1 fold
- mean fold increase in resistance (Table 11 #5, protease genotype 10I + 84V): 1.2 fold
- mean fold increase in resistance (Table 11 #6, protease genotype 10I + 84C): 3.4 fold
- mean fold increase in resistance (Table 11 #7, protease genotype 77I): 0.6 fold
- mean fold increase in resistance (Table 11 #8, protease genotype 77I + 84V): 3.3 fold
- mean fold increase in resistance (Table 11 #9, protease genotype 77I + 84C): 2.2 fold
- mean fold increase in resistance (Table 11 #10, protease genotype 77I + 84C): 4.9 fold
- mean fold increase in resistance (Table 11 #11, protease genotype 10I + 24I + 36I + 46I + 71V + 84C): 12.8 fold
- Fold change in IC50 (Table 12, V19263, genotype 77I): 0.6 fold
- Fold change in IC50 (Table 12, V20160, genotype WT): 1.0 fold
- Fold change in IC50 (Table 12, V021667, genotype 10I): 1.1 fold
- Fold change in IC50 (Table 12, V030496, genotype 10I + 77I): 0.5 fold
- Fold change in IC50 (Table 12, V048869, genotype 10I + 54M + 77I + 90M): 9.3 fold
- Fold change in IC50 (Table 12, V048872, genotype 33F + 54M + 77I + 90M): 30.3 fold
- Fold change in IC50 (Table 12, V048873, genotype 33F + 54M + 77I + 90M): 37.5 fold
- Fold change in IC50 (Table 12, V048877, genotype 10I + 33F + 77I + 90M): 7.9 fold
- Fold change in IC50 (Table 12, V048878, genotype 10I + 33F + 54M + 71V + 77I + 90M): 13.7 fold
- Fold change in IC50 (Table 12, V048879, genotype 10I + 33F + 54M + 71V + 77I + 90M): 14.1 fold
- Fold change in IC50 (Table 12, V048880, genotype 10I + 33F + 77I + 90M): 3.8 fold
- Fold change in IC50 (Table 12, V052940, genotype 71V): 0.3 fold
- Fold change in IC50 (Table 12, V052942, genotype 10I + 71V): 0.5 fold
- Fold change in IC50 (Table 12, V052943, genotype 10I + 90M): 0.4 fold
- Fold change in IC50 (Table 12, V052944, genotype 10I + 90M): 0.7 fold
- Fold change in IC50 (Table 12, V052945, genotype 77I + 90M): 0.3 fold
- Fold change in IC50 (Table 12, V052946, genotype 71V + 90M): 0.5 fold
- Fold change in IC50 (Table 12, V052947, genotype 10I + 77I + 90M): 1.2 fold
- Fold change in IC50 (Table 12, V052948, genotype 10I + 71V + 90M): 2.0 fold
- Fold change in IC50 (Table 12, V052949, genotype 10I + 71V + 77I + 90M): 0.6 fold
- Fold change in IC50 (Table 12, V052950, genotype 33F): 0.7 fold
- Fold change in IC50 (Table 12, V052951, genotype 33F + 77I): 0.3 fold
- Fold change in IC50 (Table 12, V052953, genotype 10I + 33F + 77I): 1.5 fold
- Fold change in IC50 (Table 12, V052954, genotype 33F + 77I + 90M): 2.1 fold
- Fold change in IC50 (Table 12, V052955, genotype 33F + 71V + 90M): 2.7 fold
- Fold change in IC50 (Table 12, V052977, genotype 10I + 33F + 54M): 12.2 fold
- Fold change in IC50 (Table 12, V052978, genotype 10I + 33F + 54M + 71V + 90M): 19.3 fold
- Fold change in IC50 (Table 12, V052979, genotype 10I + 54M): 10.4 fold
- Fold change in IC50 (Table 12, V052980, genotype 10I + 54M + 90M): 1.4 fold
- Fold change in IC50 (Table 12, V052981, genotype 10I + 54M + 71V + 90M): 8.9 fold
- Fold change in IC50 (Table 12, V052982, genotype 10I + 54M + 71V + 77I + 90M): 3.1 fold
- Fold change in IC50 (Table 12, V053832, genotype 10I + 33F): 0.6 fold
